Assay results: patent publication US20060269924A1, “Modulation of telomere-initiated cell signaling” (TRUSTEES OF BOSTON UNIVERSITY, priority 2003, published 2006)
{P} = phosphate

Key:
[1] = system: R2F (p53DD/cdk4^R24C) fibroblasts; test: SA-β-Gal staining, p53DD/cdk4^R24C R2F fibroblasts; format: cell-based, human; settings: R2F fibroblasts expressing both p53DD and cdk4^R24C, 40 μM, 1 week
Experimental: FIG. 12a: Immunoblot analysis of p53DD and cdk4^R24C expression. Cells were collected for protein analysis by western blot using 30 μg total protein and probed for total p53 and cdk4. Lanes 1, 2, 3 and 4 contain protein samples from R2F, R2F (p53DD), R2F (cdk4^R24C) and R2F (p53DD/cdk4^R24C) fibroblasts, respective. β-actin was used as a loading control. FIG. 12b: Contribution of p53 and pRb pathways to T-oligo-induced SA-β-Gal activity. R2F fibroblasts and derived transductants were treated with diluent or 40 μM T-oligo for one week and then assayed for SA-β-Gal activity. FIG. 12c: Quantitative analysis of SA-β-Gal positive cells. Cells expressing SA-β-Gal activity were counted and presented as percentage of total cells in the cultures. Averages and standard deviations were calculated from 3 representative fields from each of 3 independent experiments.
R2F newborn dermal fibroblasts and derived p53DD, […] and p53DD/cdk4^R24C transductants (a generous gift from Dr. James G. Rheinwald of Harvard Medical School) lack a functional p53 pathway, pRb pathway, and both pathways respectively.
Cells were treated once with diluent alone, 40 μM T-oligo or 40 μM complementary oligo for 1 week without re-feeding. […]
Cells were treated with either diluent or 40 μM T-oligo for 1 week and then assessed for SA-β-Gal activity. […]

[2] = system: HT-1080 fibrosarcoma cells; test: Telomere length (mean TRF length) assay; format: cell-based, human; settings: HT-1080 cells, 40 μM, 4 days
Experimental: Cells were treated as described in FIG. 13a. Lanes 1, 2, 3 contain genomic DNA from cells treated with diluent (D), T-oligo (T), or complementary oligo (C). Lanes 4 and 5 contain high (H) molecular and low (L) molecular weight standard telomeric DNA.
HT-1080 fibrosarcoma cells were treated with diluent, 40 μM T-oligo or 40 μM complementary oligo for 4 days and then the genomic DNA was isolated using the DNeasy Tissue Kit (Qiagen, Valencia, Calif.). Telomere length was determined using the Telo TTAGGG Telomere Length Assay (Roche Molecular Biochemicals, Indianapolis, Ind.) following the protocol supplied by the manufacturer. […] Terminal restriction fragments (TRF) were detected by chemiluminescence. The mean TRF length was calculated by scanning the exposed X-ray film with a densitometer and calculated as previously described (Harley et al. [1990] Telomeres shorten during ageing of human fibroblasts. Nature 345, 458-460).
To determine the affect of T-oligos on the mean telomere length (MTL) in HT-1080 cells, cells were analyzed after treatment with T-oligo for 4 days which corresponded to the time that the senescent phenotype was readily observed. […] The less than 100 bp difference in calculated MTL is within the range of experimental variation and is not significant.

[3] = system: p95 phosphorylated at serine 343; test: p95 serine 343 phosphorylation after tankyrase siRNA, western blotting and densitometry; format: cell-based, human; settings: 24 hours
Experimental: Paired cultures of human fibroblasts were treated once with tankyrase siRNA, with a non-specific siRNA (control) or were mock transfected as a second control. […] After an additional 24 hours, cells were collected and processed for western blotting using an antibody specific for p95 phosphorylated at serine 343, indicating p95 modification by activated ATM kinase. The film was then subjected to densitometry and the diluent control for each group of cells was set at 1.0 in arbitrary units (FIG. 19). As expected, in cells with normal tankyrase levels the T-oligo treated cells had twice the amount of phosphorylated p95, while the control oligo-treated or diluent-treated cells had only a 30-40% increase.

[4] = system: HT-1080 human fibrosarcoma cells; test: Clonogenic assay; format: cell-based; settings: HT-1080, 40 μM for one week, then replated 2 weeks without treatment
Experimental: Cells were treated with diluent, 40 μM T-oligo or complementary oligo for one week, and then assayed. FIG. 15a: Appearance of stained dishes. FIG. 15b: Quantification of clonogenic capacity. Colonies of triplicate cultures were counted and plotted as percentage of diluent treated control.
Human fibrosarcoma cells were treated with diluent alone, 40 μM T-oligo or 40 μM complementary oligo for one week and were then trypsinized and counted. 300 cells were seeded into 60 mm culture dishes in triplicate and then incubated in complete medium for 2 weeks with medium changed twice per week. Subsequently, the cells were fixed for 5 min in 100% methanol. The methanol was then removed and the culture dishes were rinsed briefly with water. The colonies were stained for 10 min in 4% (w/v) methylene blue solution in PBS, washed once again with water, and then counted.
To determine the long-term effect of T-oligo treatment on cell growth, HT-1080 human fibrosarcoma cells were treated with either diluent alone, 40 μM T-oligo or 40 μM complementary control oligo for one week and then an equal number of cells were replated and medium was changed twice per week for 2 weeks with no further treatment, and then stained with methylene blue (FIG. 15a).

## pGTTAGGGTTAG (DNA, 5' {P}, backbone not given here; listed as Homo sapiens) [Oligonucleotide 11mer-1]
[1]
  SA-β-Gal positive cells: 7±1%
[2]
  mean telomere length (MTL): 5.56 kb
[3]; human fibroblasts with normal tankyrase levels
  amount of phosphorylated p95 relative to diluent control: twice
[3]; tankyrase knockdown group (tankyrase siRNA)
  level of p95 phosphorylation (densitometry, diluent control set at 1.0): 1.1 arbitrary units
[4]
  clonogenic capacity: 5.7±1.9 % of diluent treated control
